We go through 48 molecules from patent publication US20250092016A1, “COMPOUNDS AND COMPOSITIONS FOR THE TREATMENT OF CORONAVIRAL RELATED DISEASES” (priority 2021, published 2025).

SMILES strings stand for the structures.

The target of one assay is SARS-CoV-2 main protease (M^pro) (Severe acute respiratory syndrome coronavirus 2, UniProt P0DTD1). The assay is described as follows: Rapid-Fire MS Biochemical Assay measuring Mpro activity (5 nM Mpro). To be noted: Rapid-Fire Assay IC50, Table 1B, Mpro inhibition, 5 μM substrate peptide, 120 min.
On to `N#Cc1ccc(N2C[C@H](C#N)N(c3cncc4ccccc34)C2=O)cc1F` (single isomer, unassigned) [Compound 73a], for which the IC50 – broadly, the concentration that gives 50% inhibition – was under 20 nM.

The assay is the same for the next values; noted with them: Table 1B, Mpro inhibition, 5 μM substrate peptide, 120 min, read-out: Rapid-Fire Assay IC50.
On to `Cc1cc(Cl)cnc1N1C[C@H](C#N)N(c2cncc3ccccc23)C1=O` (single isomer, unassigned) [Compound 80a], for which the half-inhibitory concentration (IC50) lay in the range of 20 to 200 nM.
On the same count and under the same terms, with `N#C[C@@H]1CN(c2cnc(C(F)(F)F)c(F)c2)C(=O)N1c1cncc2ccccc12` (single isomer, unassigned) [Compound 77b] the figure was 20 to 200 nM; with `COc1cc(C(F)(F)F)ncc1N1C[C@H](C#N)N(c2cncc3ccccc23)C1=O` (single isomer, unassigned) [Compound 107a], 20 to 200 nM.
Same read-out and setting: with `Cc1ccnc(N2C[C@H](C#N)N(c3cncc4ccccc34)C2=O)n1` (single isomer, unassigned) [Compound 53a] the figure was 200 to 1000 nM; with `N#CC1CN(C23CC(F)(C2)C3)C(=O)N1c1cncc2ccccc12` (racemic) [Compound 139, 1-(3-fluorobicyclo[1.1.1]pentan-1-yl)-3-(isoquinolin-4-yl)-2-oxoimidazolidine-4-carbonitrile], 20 to 200 nM; with `N#Cc1cc(Cl)ccc1N1C[C@H](C#N)N(c2cncc3ccccc23)C1=O` (single isomer, unassigned) [Compound 60a], under 20 nM.
On the same count and under the same terms, to `N#C[C@@H]1CN(c2cccc(Cl)n2)C(=O)N1c1cncc2ccccc12` (single isomer, unassigned) [Compound 111b] belongs 200 to 1000 nM; to `N#C[C@H]1CN(c2ccc(C(F)(F)F)cc2)C(=O)N1c1cncc2ccccc12` (single isomer, unassigned) [Compound 99a], under 20 nM.
`COc1ccc(Cl)cc1N1C[C@@H](C#N)N(c2cncc3ccccc23)C1=O` (single isomer, unassigned) [Compound 115b]: the IC50 is over 1000 nM.
Take `COc1ncc(C(F)(F)F)cc1N1C[C@H](C#N)N(c2cncc3ccccc23)C1=O` (single isomer, unassigned) [Compound 100a]: the 50% inhibitory concentration (IC50) was under 20 nM.
For `Cn1c(C(F)(F)F)ccc(N2C[C@H](C#N)N(c3cncc4ccccc34)C2=O)c1=O` (single isomer, unassigned) [Compound 96a], the IC50 lay within 20 to 200 nM.
For `N#C[C@@H]1CN(c2ncc(C(F)(F)F)cn2)C(=O)N1c1cncc2ccccc12` (single isomer, unassigned) [Compound 42b], the IC50 was over 1000 nM.
On to `N#CC1CN(c2cccc(C(F)(F)F)c2)C(=O)N1c1cncc2ccccc12` (racemic) [Compound 106, 3-(isoquinolin-4-yl)-2-oxo-1-(3-(trifluoromethyl)phenyl)imidazolidine-4-carbonitrile], for which the IC50 was over 1000 nM.
On the same count and under the same terms, to `Cc1ccc(C#N)c(N2C[C@@H](C#N)N(c3cncc4ccccc34)C2=O)c1` (single isomer, unassigned) [Compound 116b] belongs 200 to 1000 nM; to `Cc1ccc(F)cc1N1C[C@@H](C#N)N(c2cncc3ccccc23)C1=O` (single isomer, unassigned) [Compound 21b], over 1000 nM; to `N#Cc1cccc(N2C[C@@H](C#N)N(c3cncc4ccccc34)C2=O)c1` (single isomer, unassigned) [Compound 52b], 200 to 1000 nM.
Same read-out and setting: to `N#C[C@H]1CN([C@H]2CC[C@H](C(F)(F)F)CC2)C(=O)N1c1cncc2ccccc12` [Compound 128a, (R)-3-(isoquinolin-4-yl)-2-oxo-1-((1 r,4R)-4-(trifluoromethyl)cyclohexyl)imidazolidine-4-carbonitrile] belongs under 20 nM; to `N#C[C@H]1CN([C@@H]2CCN(CCO)C2)C(=O)N1c1cncc2ccccc12` (single isomer, unassigned) [Compound 46a], over 1000 nM; to `CC1CC(N2CC(C#N)N(c3cncc4ccccc34)C2=O)C1` (single isomer, unassigned) [Compound 120d], over 1000 nM.
Still for that read-out and setting: with `CS(=O)(=O)c1ccc2cncc(N3C(=O)N(c4cc(F)cc(F)c4)C[C@H]3C#N)c2c1` (single isomer, unassigned) [Compound 86b] the figure was over 1000 nM.
For `COc1ccc(C(F)(F)F)cc1N1C[C@@H](C#N)N(c2cncc3ccc(S(C)(=O)=O)cc23)C1=O` (single isomer, unassigned) [Compound 38b], the IC50 is over 1000 nM.
Still for that read-out and setting: with `CC(C)[C@H]1C[C@H](N2C[C@H](C#N)N(c3cncc4ccccc34)C2=O)C1` [Compound 123b, (R)-1-((1r,3R)-3-isopropylcyclobutyl)-3-(isoquinolin-4-yl)-2-oxoimidazolidine-4-carbonitrile] the figure was under 20 nM; with `N#C[C@H]1CN(c2cccc(C(F)(F)F)n2)C(=O)N1c1cncc2ccccc12` (single isomer, unassigned) [Compound 51a], 20 to 200 nM.
Still for that read-out and setting: with `CS(=O)(=O)c1ccc2cncc(N3C(=O)N(c4cccc(Cl)c4)C[C@@H]3C#N)c2c1` (single isomer, unassigned) [Compound 37a] the figure was under 20 nM; with `CC(C)(O)c1ccc(N2C[C@@H](C#N)N(c3cncc4ccccc34)C2=O)cc1` (single isomer, unassigned) [Compound 84b], over 1000 nM.
On the same count and under the same terms, to `N#C[C@H]1CN(c2ccc(F)c(Cl)c2)C(=O)N1c1cncc2ccccc12` (single isomer, unassigned) [Compound 87a] belongs under 20 nM.
Regarding `CC(C)[C@H]1C[C@@H](N2C[C@H](C#N)N(c3cncc4ccccc34)C2=O)C1` [Compound 123a, (R)-1-((1s,3S)-3-isopropylcyclobutyl)-3-(isoquinolin-4-yl)-2-oxoimidazolidine-4-carbonitrile], the IC50 is under 20 nM.
Still for that read-out and setting: with `C[C@H]1C[C@H](N2C[C@H](C#N)N(c3cncc4ccccc34)C2=O)C1` [Compound 120b, (R)-3-(isoquinolin-4-yl)-1-((1 r,3R)-3-methylcyclobutyl)-2-oxoimidazolidine-4-carbonitrile] the figure was 20 to 200 nM.
Consider `COc1cc(C#N)ccc1N1CC(C#N)N(c2cncc3ccccc23)C1=O` (racemic) [Compound 19, 1-(4-cyano-2-methoxyphenyl)-3-(isoquinolin-4-yl)-2-oxoimidazolidine-4-carbonitrile], for which the half-inhibitory concentration (IC50) was in the range of 200 to 1000 nM.
Same read-out and setting: to `N#C[C@H]1CN([C@@H]2CCN(C(=O)CO)C2)C(=O)N1c1cncc2ccccc12` (single isomer, unassigned) [Compound 25a] belongs 200 to 1000 nM.
On the same count and under the same terms, with `CC(C)c1ccc(N2C[C@H](C#N)N(c3cncc4ccccc34)C2=O)cn1` (single isomer, unassigned) [Compound 94a] the figure was under 20 nM; with `CC(C)(C)CN1C[C@H](C#N)N(c2cncc3ccccc23)C1=O` (single isomer, unassigned) [Compound 140a], 20 to 200 nM; with `C[C@@]1(C#N)CN(c2cccc(Cl)c2)C(=O)N1c1cncc2ccccc12` (single isomer, unassigned) [Compound 40b], over 1000 nM.
Same read-out and setting: with `N#C[C@H]1CN(c2cc(F)cc(F)c2)C(=O)N1c1cncc2ccccc12` (single isomer, unassigned) [Compound 110a] the figure was under 20 nM.
Consider `COc1cnc(C(F)(F)F)nc1N1C[C@@H](C#N)N(c2cncc3ccccc23)C1=O` (single isomer, unassigned) [Compound 31b], for which the 50% inhibitory concentration (IC50) was over 1000 nM.
On the same count and under the same terms, to `COc1ccc(C#N)cc1N1C[C@@H](C#N)N(c2cncc3ccccc23)C1=O` (single isomer, unassigned) [Compound 15b] belongs over 1000 nM; to `N#CC1CN(c2ccc(F)c(F)c2)C(=O)N1c1cncc2ccccc12` (racemic) [Compound 72, 1-(3,4-difluorophenyl)-3-(isoquinolin-4-yl)-2-oxoimidazolidine-4-carbonitrile], under 20 nM.
On to `N#C[C@@H]1CN(c2cccc(C(F)F)c2)C(=O)N1c1cncc2ccccc12` (single isomer, unassigned) [Compound 22b], for which the IC50 is over 1000 nM.
Still for that read-out and setting: to `N#Cc1ccc(Cl)cc1N1C[C@H](C#N)N(c2cncc3ccccc23)C1=O` (single isomer, unassigned) [Compound 20a] belongs under 20 nM; to `COc1ccc(C(F)(F)F)nc1N1C[C@@H](C#N)N(c2cncc3ccccc23)C1=O` (single isomer, unassigned) [Compound 47b], over 1000 nM; to `COc1ccc(F)cc1N1C[C@H](C#N)N(c2cncc3ccccc23)C1=O` (single isomer, unassigned) [Compound 105a], under 20 nM.
On the same count and under the same terms, with `N#CC1CN(c2ccc(=O)[nH]c2)C(=O)N1c1cncc2ccccc12` (racemic) [Compound 113, 3-(isoquinolin-4-yl)-2-oxo-1-(6-oxo-1,6-dihydropyridin-3-yl)imidazolidine-4-carbonitrile] the figure was over 1000 nM; with `N#CC1CN(c2ccc(F)c(Cl)c2)C(=O)N1c1cncc2ccccc12` (racemic) [Compound 87, 1-(3-chloro-4-fluorophenyl)-3-(isoquinolin-4-yl)-2-oxoimidazolidine-4-carbonitrile], under 20 nM.
On the same count and under the same terms, to `CS(=O)(=O)c1ccc2cncc(N3C(=O)N(c4cc(F)cc(F)c4)C[C@@H]3C#N)c2c1` (single isomer, unassigned) [Compound 86a] belongs 20 to 200 nM; to `N#C[C@@H]1CN(C23CC(C(F)(F)F)(C2)C3)C(=O)N1c1cncc2ccccc12` (single isomer, unassigned) [Compound 137b], over 1000 nM.
With `N#C[C@@H]1CN(C2CCC(F)(F)C2)C(=O)N1c1cncc2ccccc12` (single isomer, unassigned) [Compound 141c, (S)-1-((S)-3,3-difluorocyclopentyl)-3-(isoquinolin-4-yl)-2-oxoimidazolidine-4-carbonitrile or (S)-1-((R)-3,3-difluorocyclopentyl)-3-(isoquinolin-4-yl)-2-oxoimidazolidine-4-carbonitrile], the IC50 is over 1000 nM.
Still for that read-out and setting: with `N#C[C@H]1CN(c2ccc(C(F)F)cn2)C(=O)N1c1cncc2ccccc12` (single isomer, unassigned) [Compound 78a] the figure was under 20 nM.
